Measurements: patent US6506742B2, “Soluble contraceptive liquid formulation” (Ortho-McNeil Pharmaceutical, Inc., priority 1999, dated 2003)

Assay: Stability study of oral contraceptive liquid formulation stored at room temperature, amount of contraceptive in solution
Type: physicochemical
Conditions: solubilized according to the process (EtOH/PEG 400/water)
Description: A formulation as prepared in Examples 1 or 2, as shown in Table 3 were stored in a container at room temperature and tested periodically for the amount of contraceptive in solution. The reported figure of the contraceptives in solution is in percent of label claim.

Compound | solubility and stability in water
C#C[C@]1(O)CC[C@H]2[C@@H]3CCc4cc(O)ccc4[C@H]3CC[C@@]21C [EE, ethinyl estradiol] | greatly increased
C#C[C@]1(OC(C)=O)CC[C@H]2[C@@H]3CCC4=CC(=NO)CC[C@@H]4[C@H]3CC[C@@]21CC (mixture of isomers) [NGM, Norgestimate] | greatly increased
